Assay results reported in patent US20150086695A1, “SWEETENER COMPOSITION, SWEETENER PRODUCTS, AND METHODS OF SWEETENING” (Almendra Americas, LLC, priority 2013, published 2015).

System: trained expert panelists
Test: Sensory panel scaling of taste attributes on 0-15 scales (formulation study ballot)
Assay type: in vivo, human
Conditions: 0-15 scale; for Bitterness Intensity @ 2 Min (Bitter2) / Numbing/Tingling Sensation @ 2 Min (Numb/Ting2) / Sweetness Intensity @ 2 Min (Sweet2): at 2 minutes; for Bitterness Intensity @ 2 Min (Bitter2) / Numbing/Tingling Sensation @ 2 Min (Numb/Ting2) / Sweetness Intensity @ 2 Min (Sweet2) / Astringency Intensity (Astring) / Bitterness Intensity (IB) / Mouthfeel (Mfeel) / Numbing/Tingling Sensation (Numb/Ting) / Soapiness (Soap) / Sweetness Intensity Initial (Sweetness) / Sweetness Onset/Appearance Time (Onset): defined calibration rating, Sucrose Reference 10.0% sucrose, REB A Reference 500 PPM, both in 0.1% citric acid
From the text: Tongue numbing can also manifest itself as “tongue tingling”. These non-sugar-like characteristics appear inter-related in the sense that formulation as well as temperature changes affect the perception of several of them. Another taste characteristic of steviol glycosides, particularly those with relatively low levels of REB A, is soapiness, a characteristic that results from the surfactant portion of the molecule. To quantify all of these sensory effects by existing methods would require an expert sensory panel and at least 4 different sensory tests (i.e., C/R Function Determination, Flavor Profile Analysis, Temporal Profile Analysis and Adaptation Profile Analysis). However, to address a need for rapid screening of HP sweetener formulations, Prakash et al., described a scaling technique to quantify all of these sensory percepts in a single test (reference shown below under the table). An improvement of this methodology is described below.
Prior to the evaluation of test samples, all panelists must first calibrate themselves on Sucrose and Reference Samples (e.g., REB A) to ensure that they are able to appropriately scale taste attributes of interest. These Reference Samples are to be available in ample quantities for all experimental sessions. The Sucrose Reference is 10.0% sucrose acidified with 0.1% citric acid. For illustration purposes, an example of a Reference Sample can be a REB A Reference Sample that has 500 PPM REB A in the same system for general formula optimization studies.
Take a ca. 15 mL sample of the Sucrose Reference into the mouth swishing it around vigorously and note all attributes of the sensory experience. After ca. 10 sec, expectorate the sample and immediately rinse vigorously with ca. 15 mL of water, expectorating the rinse water. Over the next 2 minutes, while minimizing tongue movement in the mouth, pay attention to any rebound or intensification in perceived sweetness, bitterness, or numbing/tingling sensation. The intensity of the attribute perceived at 2 minutes is an estimate of its lingering tendency. Upon completion of calibration with the Sucrose Reference, calibration with the REB A Reference is carried out in the same way. The attribute ratings for the Sucrose and REB A References, all on 0-15 scales, are defined as follows: […]
After completion of reference sample calibrations, as well as in follow up of all sample tests, rinse the mouth vigorously with ca. 15 mL portions of the Sucrose Reference solution and two ca. 15 mL portions of water in effort to get the sensory system back to baseline. […]

| SMILES | Bitterness Intensity @ 2 Min (Bitter2) | Numbing/Tingling Sensation @ 2 Min (Numb/Ting2) | Sweetness Intensity @ 2 Min (Sweet2) | Astringency Intensity (Astring) | Bitterness Intensity (IB) | Mouthfeel (Mfeel) | Numbing/Tingling Sensation (Numb/Ting) | Soapiness (Soap) | Sweetness Intensity Initial (Sweetness) | Sweetness Onset/Appearance Time (Onset) | scores on all lingering attributes (Example 9, REBA100 500 mg/L in 0.1% citric acid, two panelists) |
| --- | --- | --- | --- | --- | --- | --- | --- | --- | --- | --- | --- |
| C=C1C[C@@]23CC[C@H]4[C@@](C)(CCC[C@@]4(C)C(=O)O[C@@H]4O[C@H](CO)[C@@H](O)[C@H](O)[C@H]4O)[C@@H]2CC[C@]1(O[C@@H]1O[C@H](CO)[C@@H](O)[C@H](O[C@@H]2O[C@H](CO)[C@@H](O)[C@H](O)[C@H]2O)[C@H]1O[C@@H]1O[C@H](CO)[C@@H](O)[C@H](O)[C@H]1O)C3 [REB A100, rebaudioside A] | 2 | 2 | 3 | 0 | 3 | 0 | 0 | 1 | 10 | 3 | – |
| OC[C@H]1O[C@@](CO)(O[C@H]2O[C@H](CO)[C@@H](O)[C@H](O)[C@H]2O)[C@@H](O)[C@@H]1O [Sucrose, sucrose] | 0 | 0 | 0 | 0 | 0 | 10 | 0 | 0 | 10 | 0 | 0 |
